Measurements as given in ChEMBL document CHEMBL3352046, “Serendipitous discovery of 2-((phenylsulfonyl)methyl)-thieno[3,2-d]pyrimidine derivatives as novel HIV-1 replication inhibitors” (Bioorg Med Chem Lett, 2014).

What was measured:
[1] = test system: Human immunodeficiency virus 1; experiment: Antiviral activity against HIV-1 LAI infected in human CEMx174-LTR-GFP CG8 cells assessed as inhibition of viral replication after 5 days; assay type: functional, organism-based; details: Human immunodeficiency virus 1, LAI, 120 h
[2] = Cytotoxicity against human CEmx174 cells expressing GFP after 5 days by resazurin assay; assay type: cell-based
[3] = Therapeutic index, ratio of CC50 for human CEmx174 cells expressing GFP to IC50 for HIV-1 LAI infected in human CEMx174-LTR-GFP CG8 cells; details: read-out: Ratio CC50/EC50
[4] = biological target: T1, Cytochrome P450 1A2 (Homo sapiens, UniProt P05177); experiment: Inhibition of recombinant CYP1A2 (unknown origin) after 10 mins by LC-MS/MS analysis; assay type: ADME
T1 sequence (P05177 whole entry): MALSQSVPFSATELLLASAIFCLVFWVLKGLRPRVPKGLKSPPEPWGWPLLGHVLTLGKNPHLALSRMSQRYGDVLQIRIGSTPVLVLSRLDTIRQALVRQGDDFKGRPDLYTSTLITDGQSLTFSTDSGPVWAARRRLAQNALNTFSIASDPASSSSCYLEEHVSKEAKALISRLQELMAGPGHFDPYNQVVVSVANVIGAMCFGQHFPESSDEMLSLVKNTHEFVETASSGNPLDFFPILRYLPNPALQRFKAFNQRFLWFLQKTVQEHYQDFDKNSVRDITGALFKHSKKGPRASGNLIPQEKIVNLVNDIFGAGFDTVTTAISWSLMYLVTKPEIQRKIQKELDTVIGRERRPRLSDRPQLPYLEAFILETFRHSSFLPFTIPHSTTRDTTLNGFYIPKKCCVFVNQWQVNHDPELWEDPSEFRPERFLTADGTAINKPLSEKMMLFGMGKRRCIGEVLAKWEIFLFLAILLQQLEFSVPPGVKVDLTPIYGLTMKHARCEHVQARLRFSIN

[5] = biological target: Cytochrome P450 2D6 (Homo sapiens, UniProt P10635); experiment: Inhibition of recombinant CYP2D6 (unknown origin) after 20 mins by LC-MS/MS analysis; assay type: ADME
[6] = biological target: Cytochrome P450 3A4 (Homo sapiens, UniProt P08684); experiment: Inhibition of recombinant CYP3A4 (unknown origin) after 3 mins by LC-MS/MS analysis; assay type: ADME
[7] = biological target: Cytochrome P450 2C9 (Homo sapiens, UniProt P11712); experiment: Inhibition of recombinant CYP2C9 (unknown origin) after 10 mins by LC-MS/MS analysis; assay type: ADME
Cytochrome P450 2C9, sequence (P11712 whole entry): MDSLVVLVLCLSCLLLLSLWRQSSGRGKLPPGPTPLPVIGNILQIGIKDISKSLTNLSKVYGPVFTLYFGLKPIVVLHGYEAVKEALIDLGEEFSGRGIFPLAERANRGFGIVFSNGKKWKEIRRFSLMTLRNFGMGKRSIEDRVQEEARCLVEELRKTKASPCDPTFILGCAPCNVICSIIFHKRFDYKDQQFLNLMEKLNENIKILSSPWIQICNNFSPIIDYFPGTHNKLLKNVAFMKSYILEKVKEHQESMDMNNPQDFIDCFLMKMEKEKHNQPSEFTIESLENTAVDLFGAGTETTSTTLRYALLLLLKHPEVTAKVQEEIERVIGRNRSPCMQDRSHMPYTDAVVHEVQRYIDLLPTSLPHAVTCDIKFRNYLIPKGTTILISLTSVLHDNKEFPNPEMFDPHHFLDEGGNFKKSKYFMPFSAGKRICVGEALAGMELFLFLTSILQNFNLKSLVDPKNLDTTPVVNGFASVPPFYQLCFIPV

Cytochrome P450 3A4, sequence (P08684 whole entry): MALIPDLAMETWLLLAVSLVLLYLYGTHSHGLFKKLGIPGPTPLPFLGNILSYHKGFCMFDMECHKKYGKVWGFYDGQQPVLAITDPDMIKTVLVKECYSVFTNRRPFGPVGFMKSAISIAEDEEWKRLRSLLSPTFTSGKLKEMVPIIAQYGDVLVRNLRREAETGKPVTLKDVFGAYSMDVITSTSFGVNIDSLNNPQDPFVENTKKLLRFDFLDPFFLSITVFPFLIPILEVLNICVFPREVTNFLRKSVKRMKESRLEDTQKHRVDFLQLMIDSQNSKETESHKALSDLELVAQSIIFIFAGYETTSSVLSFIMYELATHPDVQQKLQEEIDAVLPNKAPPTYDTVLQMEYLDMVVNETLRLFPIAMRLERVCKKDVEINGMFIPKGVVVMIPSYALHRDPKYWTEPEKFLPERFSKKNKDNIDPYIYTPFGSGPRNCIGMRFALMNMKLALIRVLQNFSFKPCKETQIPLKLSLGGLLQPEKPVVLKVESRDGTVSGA
Cytochrome P450 2D6, sequence (P10635 whole entry): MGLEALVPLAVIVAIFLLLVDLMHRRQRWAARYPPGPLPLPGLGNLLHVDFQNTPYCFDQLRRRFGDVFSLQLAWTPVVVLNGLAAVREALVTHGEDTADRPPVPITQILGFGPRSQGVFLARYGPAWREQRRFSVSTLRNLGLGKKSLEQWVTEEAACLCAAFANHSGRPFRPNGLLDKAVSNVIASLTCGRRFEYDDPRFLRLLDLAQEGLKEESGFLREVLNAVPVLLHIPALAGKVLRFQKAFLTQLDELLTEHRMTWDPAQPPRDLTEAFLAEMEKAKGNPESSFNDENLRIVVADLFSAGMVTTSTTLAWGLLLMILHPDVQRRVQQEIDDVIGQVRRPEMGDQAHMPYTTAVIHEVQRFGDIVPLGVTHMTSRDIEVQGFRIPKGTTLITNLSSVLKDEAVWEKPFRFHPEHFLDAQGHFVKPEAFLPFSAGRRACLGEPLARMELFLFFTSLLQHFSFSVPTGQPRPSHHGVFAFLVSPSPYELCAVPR

EC50 [1] [µM]	IC50 [4] [µM]	IC50 [5] [µM]	IC50 [6] [µM]	IC50 [7] [µM]	SMILES	CC50 at 120 h [2] [µM]	selectivity ratio [3]
18	–	–	–	–	COc1ccc(-c2nc(CSc3ccc(C(F)(F)F)cn3)nc3ccsc23)cn1	> 50	> 2.7
0.728	–	–	–	–	COc1ccc(-c2nc(CSc3cc(Cl)ccc3Cl)nc3ccsc23)cn1	> 50	> 68
0.322	–	–	–	–	COc1ccc(-c2nc(S(=O)(=O)c3cccc(Cl)c3)nc3ccsc23)cn1	> 50	> 155
0.189	–	–	–	–	O=S(=O)(Cc1nc(-c2ccncc2)c2sccc2n1)c1cccc(Cl)c1	> 50	> 264
0.831	–	–	–	–	COc1ccc(Oc2nc(CS(=O)(=O)c3cccc(Cl)c3)nc3ccsc23)cc1	> 50	> 60
0.158	–	–	–	–	COc1ccc(-c2nc(CSc3cccc(Br)c3)nc3ccsc23)cn1	> 50	> 316
0.084	–	–	–	–	COc1ccc(-c2nc(C(C)S(=O)(=O)c3cccc(Cl)c3)nc3ccsc23)cn1 (stereo not drawn)	> 50	> 595
5	–	–	–	–	COc1ccc(-c2nc(CSc3cccc(Cl)c3Cl)nc3ccsc23)cn1	> 50	> 10
0.025	> 10	> 10	6.71	5.25	COc1ccc(-c2nc(CS(=O)(=O)c3cccc(Cl)c3)nc3ccsc23)cn1	> 10	> 400
23	–	–	–	–	COc1ccc(-c2nc(CSCc3cccc(Cl)c3)nc3ccsc23)cn1	> 50	> 2.2
0.014	–	–	–	–	COc1ccc(-c2nc(CSc3cccc(Cl)c3)nc3ccsc23)cn1	> 10	> 714
0.485	–	–	–	–	O=S(=O)(Cc1nc(-c2cccnc2)c2sccc2n1)c1cccc(Cl)c1	> 50	> 103
0.53	–	–	–	–	CCC1=C(C(=O)OCC2CCCCC2)C(c2cccc(O)c2)NC(=O)N1 (stereo not drawn)	> 10	–
0.14	–	–	–	–	O=S(=O)(Cc1nc(-c2cccs2)c2sccc2n1)c1cccc(Cl)c1	> 50	> 357
0.262	–	–	–	–	COc1ccc(-c2nc(CSc3cccc(C(F)(F)F)c3)nc3ccsc23)cn1	> 50	> 190
0.775	–	–	–	–	O=S(=O)(Cc1nc(-c2ccoc2)c2sccc2n1)c1cccc(Cl)c1	> 50	> 64
0.087	–	–	–	–	COc1ccc(-c2nc(C(F)S(=O)(=O)c3cccc(Cl)c3)nc3ccsc23)cn1 (stereo not drawn)	> 50	> 574
3.2	–	–	–	–	COc1ccc(Nc2nc(CS(=O)(=O)c3cccc(Cl)c3)nc3ccsc23)cc1	60	18.8
0.27	–	–	–	–	O=S(=O)(Cc1nc(-c2ccnc(Cl)c2)c2sccc2n1)c1cccc(Cl)c1	63	233
9	–	–	–	–	COc1ccc(-c2nc(CC(O)c3cccc(Cl)c3)nc3ccsc23)cn1 (stereo not drawn)	31	3.4

EC50 [1] [µM]	IC50 [4] [µM]	IC50 [5] [µM]	IC50 [6] [µM]	IC50 [7] [µM]	SMILES	CC50 at 120 h [2] [µM]	selectivity ratio [3]
0.27	–	–	–	–	c1ccc(-c2cc(CNc3nncc(-c4cccc5ccccc45)n3)n[nH]2)cc1	> 10	–
0.237	–	–	–	–	COc1ccc(-c2nc(C(F)(F)S(=O)(=O)c3cccc(Cl)c3)nc3ccsc23)cn1	> 50	> 210
0.672	–	–	–	–	COc1ccc(-c2nc(CNc3cccc(Cl)c3)nc3ccsc23)cn1	> 50	> 74
0.59	–	–	–	–	O=S(=O)(Cc1nc(N2CCOCC2)c2sccc2n1)c1cccc(Cl)c1	> 50	> 84
1.6	–	–	–	–	COc1ccc(-c2nc(CCc3cccc(Cl)c3)nc3ccsc23)cn1	> 50	> 31
0.103	–	–	–	–	COc1ccc(-c2nc(CS(=O)(=O)c3cccc(Cl)c3)nc3ccsc23)cc1	69	669
–	–	–	–	–	Cc1ccnc2c1NC(=O)c1cccnc1N2C1CC1 [NEVIRAPINE]	> 10	> 66
8	–	–	–	–	COc1ccc(-c2nc(/C=C\c3cccc(Cl)c3)nc3ccsc23)cn1	53	6.6
5.4	–	–	–	–	COc1ccc(-c2nc(CCS(=O)(=O)c3cccc(Cl)c3)nc3ccsc23)cn1	> 50	> 9.2
0.069	–	–	–	–	COc1ccc(-c2nc(C3(S(=O)(=O)c4cccc(Cl)c4)CC3)nc3ccsc23)cn1	> 50	> 724
2.3	–	–	–	–	COc1ccc(-c2nc(C(C)(C)S(=O)(=O)c3cccc(Cl)c3)nc3ccsc23)cn1	> 50	> 21
3.2	–	–	–	–	O=S(=O)(Cc1nc(-c2ccc(Cl)nc2)c2sccc2n1)c1cccc(Cl)c1	70	21
0.384	–	–	–	–	COc1ccc(-c2nc(COc3cccc(Cl)c3)nc3ccsc23)cn1	> 50	> 130
0.2	–	–	–	–	COc1ccc(-c2nc(CC(=O)c3cccc(Cl)c3)nc3ccsc23)cn1	30	150
6	–	–	–	–	O=S(=O)(Cc1nc(-c2ccc(F)nc2)c2sccc2n1)c1cccc(Cl)c1	40	6.6
5	–	–	–	–	COc1ccc(-c2nc(CSc3ccc(F)cc3F)nc3ccsc23)cn1	> 50	> 10
0.774	–	–	–	–	COc1ccc(-c2nc(CSc3cc(C)cc(C)c3)nc3ccsc23)cn1	> 50	> 64
0.532	–	–	–	–	COc1ccc(-c2nc(C[S+]([O-])c3cccc(Cl)c3)nc3ccsc23)cn1 (stereo not drawn)	> 50	> 93
0.915	–	–	–	–	O=c1ccc(-c2nc(CS(=O)(=O)c3cccc(Cl)c3)nc3ccsc23)c[nH]1	> 50	> 54
